Values belong to the compound of their own block, whether it stands above or below them.
Legend:
Assay type in all cases: biochemical
BTK [1] = biological target: T1, BTK (Homo sapiens (Human), UniProt Q06187); experiment: Protein kinase IC50 determination (method developed by Invitrogen Technology); conditions: concentration of ATP: Km for ATP
Experimental: (§1) In some experiments, inhibitory activities of the compounds described herein against select protein kinases were determined as IC50 values (e.g., IC50 values in Table 3) using methods known in the art (e.g., the method developed by Invitrogen Technology).

HCK = HCK (Homo sapiens (Human), UniProt P08631); experiment: as above; conditions: concentration of ATP: Km for ATP
Experimental: as §1

YES1 = YES1 (Homo sapiens (Human), UniProt P07947); experiment: Radiometric [γ-32P]ATP protein kinase assay (Hastie et al.), % activity vs DMSO control; conditions: read-out: Activity of the protein kinase when treated with compound I-1 (% control)
Experimental: (§2) In another set of experiments, the activities of the compounds described herein against various protein kinases were determined according to the methods reported in Hastie et al., Nature Protocols, 2006, 1, 968-971.
(§3) This buffer consisted of 50 mM Tris-HCl, pH 7.5, 0.1 mM EGTA, 1 mg ml^−1 bovine serum albumin and 0.1% (vol/vol) 2-mercaptoethanol.
(§4) An assay buffer of 500 mM Tris-HCl, pH 7.5, 1 mM EGTA, and 100 mM magnesium acetate was used for assay of a wide variety of protein kinases. In some experiments, other cofactors were included (e.g., calcium ions and calmodulin were included for assay of calcium-calmodulin-dependent protein kinases).
(§5) The specific activity of the [γ-^32P] ATP solution was 1×10^5 to 1×10^6 c.p.m. per nmol depending on what was needed to produce an optimal signal/noise ratio. Stocks of nonradioactive (“cold”) ATP were dissolved in 10 mM HEPES, and the pH of the resulting stock solutions was adjusted to 7.4. To measure the concentration of ATP, a sample of such a stock solution was diluted to 20 μM, and the absorbance of the diluted sample was measured at 259 nm. The absorbance of a 20 μM stock solution of ATP at 259 nm was about 0.31. The 1-mM solution of cold ATP was “spiked” with [γ-^32P] ATP to produce a radioactivity of 1×10^5 to 1×10^6 c.p.m. per nmol.
(§6) 1) The number of assay samples needed was determined based on, e.g., the following considerations: (i) each condition was assayed in duplicate; (ii) two controls containing peptide or protein substrate and ATP but no protein kinase were included to assess contamination by any free ATP not incorporated into substrate, alongside two controls lacking a peptide or protein substrate but containing ATP and protein kinase to correct for any incorporation of phosphate into the kinase itself (e.g., autophosphorylation); and (iii) a maximum of 40 samples were assayed manually at one time by a single person. Microcentrifuge tubes were label distinctly and were placed on ice.
(§7) 2) Suspend a wire mesh basket in a beaker containing a magnetic stir bar and not less than 5 ml of 75 mM phosphoric acid per assay sample or a minimum volume of 100 ml. Place this on a magnetic stirrer behind a plexiglass shield.
(§8) 3) Label 2 cm×2 cm squares of phosphocellulose paper corresponding to the samples to be pipetted into each microcentrifuge tube. Label the phosphocellulose paper using pencil, which was not affected by the solvents used to wash the papers at the end of the assay.
(§9) 4) Dilute the protein kinase in enzyme dilution buffer and place on ice.
(§10) 5) Pipette 5 μl of 10× concentrated assay buffer, 5 μl peptide or protein substrate (the two “no-substrate” control tubes had 5 μl water added instead of peptide or protein substrate), and 30 μl distilled water into each tube. Keep the tubes on ice.
(§11) 6) Add 5 μl diluted protein kinase to each tube, except for the two “no-enzyme” control tubes, which had 5 μl enzyme dilution buffer added, and still keeping the tubes on ice. In some cases, premixed “cocktails” of assay components were prepared containing peptide or protein substrate, assay buffer, and distilled water to limit the number of additions to each assay tube.
(§12) 7) Insert each tube into the water bath at intervals of 15 s to allow the assay mixture to reach 30° C. Begin the protein kinase reactions by adding 5 μl of 1 mM [γ-^32P]ATP to each tube at intervals of 15 s. Close each tube, vortex for 1 s to mix the contents and immediately replace in a rack in the water bath. Incubate for 10 min at 30° C.
(§13) 8) At 10 min after the addition of ATP, remove each tube from the water bath at intervals of 15 s.
(§14) 9) “Spot” […] of each reaction mixture onto the center of a 2-cm square of P81 phosphocellulose paper using forceps to handle the paper squares. Immediately immerse the paper into the 75 mM phosphoric acid contained in the wire mesh basket suspended in the beaker that is being stirred continuously with a magnetic stirrer. This was be done within 1 to 2 s, as this step terminated the reaction. […]

Lck = Lck (Homo sapiens (Human), UniProt P06239); experiment: as above; conditions: read-out: Activity of the protein kinase when treated with compound I-1 (% control)
Experimental: as §2, §3, §4, §5, §6, §7, §8, §9, §10, §11, §12, §13, §14

EPH-A2 = EPH-A2 (Homo sapiens (Human), UniProt P29317); experiment: as above; conditions: read-out: Activity of the protein kinase when treated with compound I-1 (% control)
Experimental: as §2, §3, §4, §5, §6, §7, §8, §9, §10, §11, §12, §13, §14

BRK = BRK (Homo sapiens (Human), UniProt Q13882); experiment: as above; conditions: read-out: Activity of the protein kinase when treated with compound I-1 (% control)
Experimental: as §2, §3, §4, §5, §6, §7, §8, §9, §10, §11, §12, §13, §14

DDR2 = DDR2 (Homo sapiens (Human), UniProt Q16832); experiment: as above; conditions: read-out: Activity of the protein kinase when treated with compound I-1 (% control)
Experimental: as §2, §3, §4, §5, §6, §7, §8, §9, §10, §11, §12, §13, §14

CSK = CSK (Homo sapiens (Human), UniProt P41240); experiment: as above; conditions: read-out: Activity of the protein kinase when treated with compound I-1 (% control)
Experimental: as §2, §3, §4, §5, §6, §7, §8, §9, §10, §11, §12, §13, §14

ABL = ABL (Homo sapiens (Human), UniProt P00519); experiment: as above; conditions: read-out: Activity of the protein kinase when treated with compound I-1 (% control)
Experimental: as §2, §3, §4, §5, §6, §7, §8, §9, §10, §11, §12, §13, §14

BTK [2] = biological target: T1, BTK; experiment: as above; conditions: read-out: Activity of the protein kinase when treated with compound I-1 (% control)
Experimental: as §2, §3, §4, §5, §6, §7, §8, §9, §10, §11, §12, §13, §14

Src = Src (Homo sapiens (Human), UniProt P12931); experiment: as above; conditions: read-out: Activity of the protein kinase when treated with compound I-1 (% control)
Experimental: as §2, §3, §4, §5, §6, §7, §8, §9, §10, §11, §12, §13, §14

FGF-R1 = FGF-R1 (Homo sapiens (Human), UniProt P11362); experiment: as above; conditions: read-out: Activity of the protein kinase when treated with compound I-1 (% control)
Experimental: as §2, §3, §4, §5, §6, §7, §8, §9, §10, §11, §12, §13, §14

VEG-FR = experiment: as above
Experimental: as §2, §3, §4, §5, §6, §7, §8, §9, §10, §11, §12, §13, §14

p38a MAPK = p38a MAPK (Homo sapiens (Human), UniProt Q16539); experiment: as above; conditions: read-out: Activity of the protein kinase when treated with compound I-1 (% control)
Experimental: as §2, §3, §4, §5, §6, §7, §8, §9, §10, §11, §12, §13, §14

TIE2 = TIE2 (Homo sapiens (Human), UniProt Q02763); experiment: as above; conditions: read-out: Activity of the protein kinase when treated with compound I-1 (% control)
Experimental: as §2, §3, §4, §5, §6, §7, §8, §9, §10, §11, §12, §13, §14

HER4 = HER4 (Homo sapiens (Human), UniProt Q15303); experiment: as above; conditions: read-out: Activity of the protein kinase when treated with compound I-1 (% control)
Experimental: as §2, §3, §4, §5, §6, §7, §8, §9, §10, §11, §12, §13, §14

EPH-B1 = EPH-B1 (Homo sapiens (Human), UniProt P54762); experiment: as above; conditions: read-out: Activity of the protein kinase when treated with compound I-1 (% control)
Experimental: as §2, §3, §4, §5, §6, §7, §8, §9, §10, §11, §12, §13, §14

[3] = 0.1 μM of compound I-1, DMSO control = 100%
[4] = 1 μM of compound I-1, DMSO control = 100%

HCK, sequence (P08631 whole entry): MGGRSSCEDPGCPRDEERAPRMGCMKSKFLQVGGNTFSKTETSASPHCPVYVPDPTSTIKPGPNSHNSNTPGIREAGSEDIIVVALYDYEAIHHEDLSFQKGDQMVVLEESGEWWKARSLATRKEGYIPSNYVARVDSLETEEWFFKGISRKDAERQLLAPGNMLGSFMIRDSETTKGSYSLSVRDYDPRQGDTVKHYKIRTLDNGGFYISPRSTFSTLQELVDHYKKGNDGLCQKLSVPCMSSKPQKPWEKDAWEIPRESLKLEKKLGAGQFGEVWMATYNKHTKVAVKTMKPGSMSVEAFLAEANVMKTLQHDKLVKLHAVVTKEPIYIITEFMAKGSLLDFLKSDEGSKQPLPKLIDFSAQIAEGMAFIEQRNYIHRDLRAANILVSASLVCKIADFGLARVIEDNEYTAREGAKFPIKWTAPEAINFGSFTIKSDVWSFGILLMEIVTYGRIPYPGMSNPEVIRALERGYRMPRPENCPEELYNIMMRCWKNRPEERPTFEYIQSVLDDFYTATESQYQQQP
T1 sequence (Q06187 whole entry): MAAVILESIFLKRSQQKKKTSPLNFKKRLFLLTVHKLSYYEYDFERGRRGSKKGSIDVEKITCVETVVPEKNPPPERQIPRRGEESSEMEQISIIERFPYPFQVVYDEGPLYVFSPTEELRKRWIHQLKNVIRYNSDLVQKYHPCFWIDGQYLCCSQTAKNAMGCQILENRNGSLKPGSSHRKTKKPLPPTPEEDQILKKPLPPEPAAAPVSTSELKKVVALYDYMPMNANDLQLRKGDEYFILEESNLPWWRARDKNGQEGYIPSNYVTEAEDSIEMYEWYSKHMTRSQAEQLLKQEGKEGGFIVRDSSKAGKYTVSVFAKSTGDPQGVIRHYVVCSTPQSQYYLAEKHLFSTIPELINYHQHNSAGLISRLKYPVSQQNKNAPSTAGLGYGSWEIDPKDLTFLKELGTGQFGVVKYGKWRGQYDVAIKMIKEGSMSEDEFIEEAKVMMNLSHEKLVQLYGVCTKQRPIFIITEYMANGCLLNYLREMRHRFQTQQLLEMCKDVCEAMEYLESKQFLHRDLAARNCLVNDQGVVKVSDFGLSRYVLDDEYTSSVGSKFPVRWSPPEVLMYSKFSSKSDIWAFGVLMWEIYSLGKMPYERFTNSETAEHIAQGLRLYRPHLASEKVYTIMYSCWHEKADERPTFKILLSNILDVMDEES
DDR2, sequence (Q16832 22-855): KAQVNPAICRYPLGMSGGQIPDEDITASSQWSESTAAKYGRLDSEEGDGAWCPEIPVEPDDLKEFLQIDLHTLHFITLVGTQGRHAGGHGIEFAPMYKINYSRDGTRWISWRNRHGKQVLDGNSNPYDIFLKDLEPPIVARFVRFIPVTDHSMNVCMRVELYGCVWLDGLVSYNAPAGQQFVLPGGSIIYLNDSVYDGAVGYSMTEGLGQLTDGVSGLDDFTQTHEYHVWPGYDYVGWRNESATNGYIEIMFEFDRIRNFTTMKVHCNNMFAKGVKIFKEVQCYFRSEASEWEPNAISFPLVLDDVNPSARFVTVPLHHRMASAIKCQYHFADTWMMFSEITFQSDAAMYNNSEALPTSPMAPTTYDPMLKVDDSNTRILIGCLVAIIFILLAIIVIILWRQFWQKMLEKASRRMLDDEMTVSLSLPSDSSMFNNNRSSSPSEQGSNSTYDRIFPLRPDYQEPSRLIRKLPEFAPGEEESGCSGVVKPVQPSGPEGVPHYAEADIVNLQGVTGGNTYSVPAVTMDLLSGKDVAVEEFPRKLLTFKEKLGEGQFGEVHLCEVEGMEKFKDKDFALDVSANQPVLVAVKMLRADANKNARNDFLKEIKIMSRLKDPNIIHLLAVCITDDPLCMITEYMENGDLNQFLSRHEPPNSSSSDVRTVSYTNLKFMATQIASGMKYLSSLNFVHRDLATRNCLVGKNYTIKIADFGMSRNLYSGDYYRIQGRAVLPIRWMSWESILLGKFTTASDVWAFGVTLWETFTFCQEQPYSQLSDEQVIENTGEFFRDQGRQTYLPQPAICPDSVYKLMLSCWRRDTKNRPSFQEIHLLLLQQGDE
BRK, sequence (Q13882 whole entry): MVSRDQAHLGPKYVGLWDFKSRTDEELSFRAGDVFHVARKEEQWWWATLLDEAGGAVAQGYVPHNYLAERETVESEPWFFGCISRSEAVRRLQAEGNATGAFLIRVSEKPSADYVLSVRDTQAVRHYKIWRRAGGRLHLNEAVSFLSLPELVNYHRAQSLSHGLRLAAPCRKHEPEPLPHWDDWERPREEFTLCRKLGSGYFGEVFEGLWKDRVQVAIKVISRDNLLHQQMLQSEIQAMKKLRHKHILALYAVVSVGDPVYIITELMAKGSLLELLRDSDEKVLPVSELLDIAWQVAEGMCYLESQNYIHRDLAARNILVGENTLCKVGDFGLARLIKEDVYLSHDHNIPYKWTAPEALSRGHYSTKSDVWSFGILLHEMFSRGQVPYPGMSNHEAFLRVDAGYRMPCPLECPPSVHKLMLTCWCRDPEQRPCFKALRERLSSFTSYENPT
HER4, sequence (Q15303 26-1308): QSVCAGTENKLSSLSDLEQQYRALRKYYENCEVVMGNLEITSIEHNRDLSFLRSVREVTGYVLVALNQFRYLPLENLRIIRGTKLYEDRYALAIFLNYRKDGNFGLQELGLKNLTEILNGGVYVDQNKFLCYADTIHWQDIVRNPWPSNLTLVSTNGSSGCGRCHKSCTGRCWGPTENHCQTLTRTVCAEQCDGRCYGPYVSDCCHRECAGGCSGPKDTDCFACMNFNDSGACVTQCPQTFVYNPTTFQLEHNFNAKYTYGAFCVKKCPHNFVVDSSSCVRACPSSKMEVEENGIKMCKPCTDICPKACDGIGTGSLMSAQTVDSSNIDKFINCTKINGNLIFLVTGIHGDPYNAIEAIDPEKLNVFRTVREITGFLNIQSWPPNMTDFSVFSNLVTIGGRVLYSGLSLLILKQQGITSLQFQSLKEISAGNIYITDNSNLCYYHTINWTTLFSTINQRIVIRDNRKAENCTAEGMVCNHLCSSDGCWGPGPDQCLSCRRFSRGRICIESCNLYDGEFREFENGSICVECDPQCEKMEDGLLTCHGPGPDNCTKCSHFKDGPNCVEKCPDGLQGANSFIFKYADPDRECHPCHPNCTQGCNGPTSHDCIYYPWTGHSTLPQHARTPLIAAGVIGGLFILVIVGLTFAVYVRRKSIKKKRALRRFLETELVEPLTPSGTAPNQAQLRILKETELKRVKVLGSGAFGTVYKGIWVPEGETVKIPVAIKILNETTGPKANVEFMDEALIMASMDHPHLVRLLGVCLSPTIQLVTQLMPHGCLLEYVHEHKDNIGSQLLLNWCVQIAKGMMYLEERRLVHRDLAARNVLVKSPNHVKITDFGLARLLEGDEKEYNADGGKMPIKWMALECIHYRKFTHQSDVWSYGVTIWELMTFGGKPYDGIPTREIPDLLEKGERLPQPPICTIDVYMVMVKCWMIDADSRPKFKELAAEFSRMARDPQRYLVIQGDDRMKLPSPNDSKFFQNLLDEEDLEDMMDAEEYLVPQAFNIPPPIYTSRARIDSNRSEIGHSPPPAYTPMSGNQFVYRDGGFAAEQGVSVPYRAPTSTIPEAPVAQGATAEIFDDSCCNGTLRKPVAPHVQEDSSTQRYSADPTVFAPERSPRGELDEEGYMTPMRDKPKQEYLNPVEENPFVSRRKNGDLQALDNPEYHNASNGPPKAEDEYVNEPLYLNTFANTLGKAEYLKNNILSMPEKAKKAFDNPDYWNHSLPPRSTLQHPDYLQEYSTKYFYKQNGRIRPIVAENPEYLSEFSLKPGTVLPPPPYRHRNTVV
Lck, sequence (P06239 whole entry): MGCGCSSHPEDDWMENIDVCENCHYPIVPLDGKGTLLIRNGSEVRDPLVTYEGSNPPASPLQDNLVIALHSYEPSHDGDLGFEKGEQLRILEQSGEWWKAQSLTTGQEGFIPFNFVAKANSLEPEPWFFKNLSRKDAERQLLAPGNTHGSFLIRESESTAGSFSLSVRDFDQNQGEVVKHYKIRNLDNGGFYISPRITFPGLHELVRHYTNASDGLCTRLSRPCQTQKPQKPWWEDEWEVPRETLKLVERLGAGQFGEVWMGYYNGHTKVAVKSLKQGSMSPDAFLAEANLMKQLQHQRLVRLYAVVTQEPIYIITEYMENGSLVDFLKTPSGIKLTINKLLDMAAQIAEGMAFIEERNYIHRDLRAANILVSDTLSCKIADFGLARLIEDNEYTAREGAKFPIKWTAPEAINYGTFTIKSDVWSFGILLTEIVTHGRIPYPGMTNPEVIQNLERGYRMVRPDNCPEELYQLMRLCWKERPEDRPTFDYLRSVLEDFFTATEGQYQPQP
Src, sequence (P12931 whole entry): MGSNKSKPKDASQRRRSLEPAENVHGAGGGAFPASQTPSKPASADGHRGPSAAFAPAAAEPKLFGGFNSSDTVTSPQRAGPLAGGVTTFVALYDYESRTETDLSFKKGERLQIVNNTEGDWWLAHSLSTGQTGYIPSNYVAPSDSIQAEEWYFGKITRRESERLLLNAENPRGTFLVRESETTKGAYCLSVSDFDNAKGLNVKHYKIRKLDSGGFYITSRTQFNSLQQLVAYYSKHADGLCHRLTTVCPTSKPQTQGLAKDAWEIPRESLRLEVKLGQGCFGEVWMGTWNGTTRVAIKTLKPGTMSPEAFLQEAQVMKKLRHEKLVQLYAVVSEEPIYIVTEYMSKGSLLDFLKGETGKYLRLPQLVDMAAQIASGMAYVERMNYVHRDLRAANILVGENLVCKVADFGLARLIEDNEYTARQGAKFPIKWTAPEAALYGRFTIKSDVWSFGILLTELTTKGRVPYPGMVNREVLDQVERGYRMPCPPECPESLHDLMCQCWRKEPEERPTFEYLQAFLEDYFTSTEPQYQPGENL

IC50 (BTK [1]): 1.86 µM | IC50 (HCK): 0.307 µM
SMILES: COCCOc1ccc(Nc2cc(-n3ccnc3Nc3c(C)cccc3Cl)ncn2)cc1 [Compound I-2]

SMILES: CCN1CCN(c2ccc(Nc3cc(-n4ccnc4Nc4c(C)cccc4C)ncn3)cc2)CC1 [Compound I-1, 6-(2-((2,6-Dimethylphenyl)amino)-1H-imidazol-1-yl)-N-(4-(4-ethylpiperazin-1-yl)phenyl)pyrimidin-4-amine]
IC50 (BTK [1]): 0.338 µM | IC50 (HCK): 0.111 µM | remaining activity at 0.1 µM (YES1; [3]): 41% | remaining activity at 1 µM (YES1; [4]): 8% | remaining activity at 0.1 µM (Lck; [3]): 24% | remaining activity at 1 µM (Lck; [4]): 13% | remaining activity at 0.1 µM (EPH-A2; [3]): 99% | remaining activity at 1 µM (EPH-A2; [4]): 59% | remaining activity at 0.1 µM (BRK; [3]): 74% | remaining activity at 1 µM (BRK; [4]): 16% | remaining activity at 0.1 µM (DDR2; [3]): 46% | remaining activity at 1 µM (DDR2; [4]): 12% | remaining activity at 0.1 µM (CSK; [3]): 94% | remaining activity at 1 µM (CSK; [4]): 67% | remaining activity at 0.1 µM (ABL; [3]): 84% | remaining activity at 1 µM (ABL; [4]): 48% | remaining activity at 0.1 µM (BTK [2]; [3]): 85% | remaining activity at 1 µM (BTK [2]; [4]): 30% | remaining activity at 0.1 µM (Src; [3]): 43% | remaining activity at 1 µM (Src; [4]): 13% | remaining activity at 0.1 µM (FGF-R1; [3]): 67% | remaining activity at 1 µM (FGF-R1; [4]): 30% | Activity of the protein kinase when treated with compound I-1 (% control) (VEG-FR; [3]): 81 % control | Activity of the protein kinase when treated with compound I-1 (% control) (VEG-FR; [4]): 31 % control | remaining activity at 0.1 µM (p38a MAPK; [3]): 87% | remaining activity at 1 µM (p38a MAPK; [4]): 28% | remaining activity at 0.1 µM (TIE2; [3]): 82% | remaining activity at 1 µM (TIE2; [4]): 85% | remaining activity at 0.1 µM (HER4; [3]): 97% | remaining activity at 1 µM (HER4; [4]): 76% | remaining activity at 0.1 µM (EPH-B1; [3]): 86% | remaining activity at 1 µM (EPH-B1; [4]): 16%

IC50 (BTK [1]): > 10 µM | IC50 (HCK): 3 µM
SMILES: Cc1cccc(Cl)c1Nc1nccn1-c1cc(Nc2cnn(C)c2)ncn1 [Compound I-4]

IC50 (BTK [1]): 9.98 µM | IC50 (HCK): 2.42 µM
SMILES: COCCOc1ccc(Nc2cc(-n3ccnc3Nc3c(C)cccc3C)ncn2)cc1 [Compound I-3]

Source: patent US10287268B2, “Imidazolyl kinase inhibitors and uses thereof” (Dana-Farber Cancer Institute, Inc., priority 2014, dated 2019)
